From patent publication EP0095454A2, “Nuclens-substituted pyrogallol derivatives” (Gerot-Pharmazeutika Gesellschaft m.b.H., priority 1982, dated 1983)
Structures can show the parent of a compound that is named as a salt.

What was measured:
ß-Adrenozeptor = assay: Attenuation of the positive chronotropic effect of isoprenaline in the conscious dog; format: in vivo, Hund; settings: intensity relative to the known ß-blocker Atenolol at the same dose
Experimental: (§1) Sobewirkt z.B. das Hydrochlorid von 2,2-Dimethyl-4- (2' hydroxy-3'-tert.butylaminopropoxy)-1,3-benzodioxol am wachen Hund eine 40-fach intensivere Abschwächung der positiv chronotropen Isoprenalinwirkung als der bekannte B-Blocker Atenolol in gleicher Dosierung und ergibt im Writhing-Test nach Huntingdon mit einer ED 50 von nur 8 mg/kg (Maus, oral) eine gute analgetische Wirkung. Vergleicht man diese im Writhina-Test mit der von bekannten Analgetika, dann zeigt sich die Überlegenheit des neuen Wirkstoffes: […]

Maus = assay: Writhing test according to Huntingdon (analgesia); format: in vivo; settings: Mus musculus, oral
Experimental: as §1

Structure (SMILES)	Abschwächung der positiv chronotropen Isoprenalinwirkung (ß-Adrenozeptor)	ED50 (Maus) [mg/kg]
CC(C)(C)NCC(O)COc1cccc2c1OC(C)(C)O2 (centres unmarked) [2,2-Dimethyl-4-(2'-hydroxy-3'-tert.butylamino--propoxy)-1,3-benzodioxol]	40 -fach	8
Cc1c(N(C)CS(=O)(=O)O)c(=O)n(-c2ccccc2)n1C [Metamizol-Natrium]		10.6
NC(=O)c1ccccc1OCC(=O)O [Natriumsalz der Salicylamid-O-essigsäure]		11.5
CCOC(=O)C1(c2ccccc2)CCN(C)CC1 [Pethidin-Hydrochlorid]		13.3
